Data set [1] has as its target Autotaxin (ATX) (Homo sapiens (Human), UniProt Q13822). As to the kind of experiment: ATX bioactivity assay (Amplex Red / choline oxidase / HRP fluorescence, LPC 16:0 substrate). It is filed as biochemical. The note with it: 30 min room temperature. The method, then:
Effect Example 1 Bioactivity Assay
Preparation and Treatment
Stock Solution Preparation
A 10 mM DMSO stock solution was formulated for each compound. A 30 mM DMSO stock solution was formulated for positive control HA130.
The DMSO stock solutions were stored at room temperature in a desiccator for a short period of time or at −20° C. for a long period of time.
All compounds were serially 3-fold diluted in DMSO from 10 μM to the 10th concentration.
A 1000× positive control (10 mM, HA130) and a 1000× negative control (100% DMSO) were prepared.
The plates were shaken for 5 min.
Preparation of 1× Reaction Buffer:
5× reaction buffer and cold water were mixed well in a volume ratio of 1:4.
Preparation of 20 U/mL Choline Oxidase Stock Solution:
1 tube of choline oxide in a kit was dissolved in 1× reaction buffer. The aliquots were frozen at −20° C.
Preparation of 200 U/mL Horseradish Peroxidase (HRP) Stock Solution:
1 tube of HRP in a kit was dissolved in 1 mL of 1× reaction buffer. The aliquots were frozen at −20° C.
Preparation of 20 mM Amplex® Red Reagent (for Detection) Stock Solution
Amplex Red reagent and DMSO were equilibrated at room temperature. 1 tube of Amplex Red reagent in a kit was dissolved in 200 μL of DMSO.
a) 2×ATX ([…]), 2×HRP ([…]), 2× choline oxidase (0.2 U/mL) were added to 1× reaction buffer.
b) 20 μL of the reaction mixture was added to the plate (PE, 6007270) (refer to step a).
c) 40 nL of diluent was added to the plate using Echo (refer to “Preparation”).
d) 2×LPC (16:0) (60 mM) and 2× Amplex® Red ([…]) were prepared using 1× reaction buffer.
e) 20 μL of the mixture was added to the plate (refer to step d).
f) The plate was shaken for 30 s and allowed to stand at room temperature for 30 min.
g) The plate was examined using Envision, and the procedure was as follows: Excitation at 530 nm; and Emission at 590 nm.
Formula for Calculating % Inhibition (Percent Inhibition Rate) as Follows:
FLU: Fluorescence (fluorescence reading)
FLUpositive: Average fluorescence value in positive control wells (10 μM HA130) in the plate.
FLUvehicle: Average fluorescence value in negative control wells (0.1% DMSO) in the plate.
Calculation of IC50 and Dose-Response Curve:
IC50 of the compounds was calculated via a non-linear regression line (dose-variable slope) fitted using % inhibition and log of compound concentration. The software used was Graphpad 5.0. Y=Bottom+(Top−Bottom)/(1+10^((Log IC50−X)×Hill Slope))
X: log of inhibitor concentration

Data set [2] concerns the target CYP3A4 (Homo sapiens (Human), UniProt P08684). Description: Time-dependent inhibition of CYP3A4 (TDI assay, human liver microsomes). The conditions noted are these: for CYP3A4 TDI % @ 10 μM: human liver microsomes, Midazolam substrate, 30 min with NADPH vs 0 min; for time-dependent inhibition on CYP3A4 (conclusion): conclusion drawn from Table 3, 10 μM. It is filed as in vitro ADME. The method, then: Effect Example 3. Time-Dependent Inhibition of CYP3A4
1. Preheating potassium phosphate buffer (K-buffer), pH 7.4: 100 mM potassium phosphate buffer (K-buffer) was prepared by mixing 9.5 mL of solution A with 40.5 mL of solution B, diluting to 500 mL with ultrapure water, and then adjusting to pH 7.4 with KOH or H3PO4, wherein the solution A (1M potassium dihydrogenphosphate) was prepared by dissolving 136.5 g of potassium dihydrogenphosphate in […] of ultrapure water.
2. Preparation of human liver microsome suspension (1.3 mg/mL, 1.3×, stock: 20 mg/mL): 100 μL of human liver microsome suspension (20 mg/mL) was added into […] of K-buffer.
3. Preparation of NADPH solution (4.167 mg/mL, 5 mM): 8.3 mg of NADPH was added into 2 mL of buffer.
4. Preparation of substrate solution (1.5× final): 1.5 μL of 10 mM Midazolam was added to 998.5 μL of K-buffer to yield the substrate mixture.
5. Preparation of 100× test compound, reference and blank control solutions: 3 μL of 10 mM stock solution of test compound was added to 27 μL of ACN; 3 μL of positive control stock solution was added to 27 μL of ACN; and 3 μL of DMSO was added to 27 μL of ACN to serve as blank control.
6. Primary preheating system: An NADPH-free system for 0 min incubation: 78 μL of 1.3× human liver microsome solution (step 2) was mixed with 1 μL of the 100× stock solutions of positive control, test compound, or blank control (step 5); A system containing NADPH for 30 min incubation: 78 μL of 1.3× human liver microsome solution (step 2) was mixed with 1 μL of the 100× stock solutions of positive control, test compound, or blank control (step 5).
7. Secondary preheating system: 150 μL of the substrate solution prepared in step 4 was added into a deep well plate together with the NADPH solution from step 3
8. The samples were preheated for 10 min in a 37° C. water bath.
9. Reaction procedure: (1) reaction for 0 min: 21 μL of K-buffer was added to the primary preheating system and mixed well without incubation; 20 μL of the mixture was immediately transferred into the plate of the secondary preheating system; after mixing, the secondary system was incubated in a 37° C. water bath for 15 min, and 60 μL of the reaction mixture was added into 120 μL of acetonitrile containing internal standard to terminate the reaction; and (2) reaction for 30 min: 21 μL of NADPH was added into the primary preheating system for a 30-min incubation after mixing; 20 μL of the mixture was added into the secondary preheating system prior to mixing; the mixture was incubated in a 37° C. water bath for 15 min, and 60 μL of the reaction mixture was added into 120 μL of acetonitrile containing internal standard to terminate the reaction.
10. After termination, the samples were shaken on a shaker at 600 rpm for 10 min and centrifuged at 5594 g for 15 min prior to LC-MS/MS analysis.

CYP3A4, sequence (P08684 whole entry): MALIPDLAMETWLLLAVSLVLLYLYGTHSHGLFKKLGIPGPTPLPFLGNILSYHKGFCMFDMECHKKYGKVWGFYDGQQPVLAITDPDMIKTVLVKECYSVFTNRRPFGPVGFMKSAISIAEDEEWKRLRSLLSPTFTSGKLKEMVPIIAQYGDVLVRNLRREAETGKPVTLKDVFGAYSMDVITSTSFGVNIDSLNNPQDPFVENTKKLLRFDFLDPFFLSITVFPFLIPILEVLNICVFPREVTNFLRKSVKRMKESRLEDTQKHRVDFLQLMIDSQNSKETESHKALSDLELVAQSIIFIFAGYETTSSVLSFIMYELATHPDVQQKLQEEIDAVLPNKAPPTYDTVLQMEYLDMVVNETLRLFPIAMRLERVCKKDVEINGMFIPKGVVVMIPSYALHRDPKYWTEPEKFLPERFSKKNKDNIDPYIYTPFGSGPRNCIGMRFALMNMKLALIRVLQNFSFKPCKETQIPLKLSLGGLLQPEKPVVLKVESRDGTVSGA

In data set [1], `CCn1nc2c(F)cc(N3CCN(CC(=O)N4CC(O)C4)CC3)cc2c1N(C)c1ccc(C#N)c(-c2ccc(F)cc2)n1` [Compound S-0030, 6-((2-ethyl-7-fluoro-5-(4-(2-(3-hydroxyazetidin-1-yl)-2-oxoethyl)piperazin-1-yl)-2H-indazol-3-yl)(methyl)amino)-2-(4-fluorophenyl)nicotinonitrile] came in with a half-inhibitory concentration (IC50) of 407 nM.

In turn, `CCn1nc2c(C)cc(N3CCN(CC(=O)N4CC(O)C4)CC3)nc2c1N(CC(F)(F)F)c1nc(-c2ccc(F)cc2)c(C#N)s1` [Compound S-0140, 2-((2-ethyl-5-(4-(2-(3-hydroxyazetidin-1-yl)-2-oxoethyl)piperazin-1-yl)-7-methyl-2H-pyrazolo[4,3-b]pyridin-3-yl)(2,2,2-trifluoroethyl)amino)-4-(4-fluorophenyl)thiazole-5-carbonitrile] registered an IC50 in data set [1] of 325 nM.

In data set [1], `CCc1nn2c(C)cc(N3CCN(CC(=O)N4CC(O)C4)C[C@@H]3C)nc2c1N(C)c1nc(-c2ccc(F)cc2)c(C#N)s1` [Compound S-0071, (S)-2-((2-ethyl-5-(4-(2-(3-hydroxyazetidin-1-yl)-2-oxoethyl)-2-methylpiperazin-1-yl)-7-methylpyrazolo[1,5-a]pyrimidin-3-yl)(methyl)amino)-4-(4-fluorophenyl)thiazole-5-carbonitrile] had an IC50 of 46 nM.

Compound `CN(c1nc(-c2ccc(F)cc2)c(C#N)s1)c1c2cc(N3CCN(CC(=O)N4CC(O)C4)CC3)cc(F)c2nn1C1CC1` [Compound S-0126, 2-((2-cyclopropyl-7-fluoro-5-(4-(2-(3-hydroxyazetidin-1-yl)-2-oxoethyl)piperazin-1-yl)-2H-indazol-3-yl)(methyl)amino)-4-(4-fluorophenyl)thiazole-5-carbonitrile] displayed an IC50 in data set [1] of 100 nM.

As for `CCc1nn2ccc(N3CCN(CC(=O)N4CC(C)(O)C4)CC3)nc2c1N(C)c1nc(-c2ccc(F)cc2)c(C#N)s1` [Compound S-0120, 2-((2-ethyl-5-(4-(2-(3-hydroxy-3-methylazetidin-1-yl)-2-oxoethyl)piperazin-1-yl)pyrazolo[1,5-a]pyrimidin-3-yl)(methyl)amino)-4-(4-fluorophenyl)thiazole-5-carbonitrile], half-maximal inhibition in data set [1] (IC50) required 41 nM.

For `O=C1S/C(=C\c2ccc(OCc3cccc(B(O)O)c3)cc2)C(=O)N1Cc1ccc(F)cc1` [HA130, reference compound], in data set [1], it took 24 nM to reach half-maximal inhibition (IC50).

For `CCN(c1nc(-c2ccc(F)c(F)c2)c(C#N)s1)c1c2cc(N3CCN(CC(=O)N4CC(O)C4)CC3)cc(F)c2nn1CC` [Compound S-0123, 4-(3,4-difluorophenyl)-2-(ethyl(2-ethyl-7-fluoro-5-(4-(2-(3-hydroxyazetidin-1-yl)-2-oxoethyl)piperazin-1-yl)-2H-indazol-3-yl)amino)thiazole-5-carbonitrile], the IC50 in data set [1] is 32 nM.

`CCc1nn2ccc(N3CCN(CC(=O)N4CC(O)C4)CC3)nc2c1N(C)c1nc(-c2ccc(F)c(F)c2)c(C#N)s1` [Compound S-0121, 4-(3,4-difluorophenyl)-2-((2-ethyl-5-(4-(2-(3-hydroxyazetidin-1-yl)-2-oxoethyl)piperazin-1-yl)pyrazolo[1,5-a]pyrimidin-3-yl)(methyl)amino)thiazole-5-carbonitrile] registered a 50% inhibitory concentration (IC50) in data set [1] of 61 nM.

`CCc1nn2c(C)cc(N3CCN(CC(=O)N4CC(O)C4)CC3)nc2c1N(C)c1nc(-c2ccc(F)c(F)c2)c(C#N)s1` [Compound S-0068, 4-(3,4-difluorophenyl)-2-((2-ethyl-5-(4-(2-(3-hydroxyazetidin-1-yl)-2-oxoethyl)piperazin-1-yl)-7-methylpyrazolo[1,5-a]pyrimidin-3-yl)(methyl)amino) thiazole-5-carbonitrile] yielded an IC50 in data set [1] of 107 nM.

`CCn1nc2ncc(N3CCN(CC(=O)N4CC(O)C4)CC3)cc2c1N(C)c1nc(-c2ccc(F)cc2)c(C#N)s1` [Compound S-0043, 2-((2-ethyl-5-(4-(2-(3-hydroxyazetidin-1-yl)-2-oxoethyl)piperazin-1-yl)-2H-pyrazolo[3,4-b]pyridin-3-yl)(methyl)amino)-4-(4-fluorophenyl)thiazole-5-carbonitrile]: in data set [2], the “CYP3A4 TDI % @ 10 μM” value is recorded as 12.38% and the “time-dependent inhibition on CYP3A4 (conclusion)” value (“time-dependent inhibition” below) is reported as “no time-dependent inhibition on CYP3A4”.

Turning to `CCc1nn2ccc(N3CCN(CC(=O)N4CC(O)C4)C(=O)C3)nc2c1N(C)c1nc(-c2ccc(F)cc2)c(C#N)s1` [Compound S-0104CP, 2-((2-ethyl-5-(4-(2-(3-hydroxyazetidin-1-yl)-2-oxoethyl)-3-oxopiperazin-1-yl)pyrazolo[1,5-a]pyrimidin-3-yl)(methyl)amino)-4-(4-fluorophenyl)thiazole-5-carbonitrile], in data set [1], inhibition was half-maximal at 256 nM (IC50).

In the case of `CCc1nn2c(C)cc(N3CCN(CC(=O)N4CC(O)C4)[C@H](C)C3)nc2c1N(C)c1nc(-c2ccc(F)cc2)c(C#N)s1` [Compound S-0074, (R)-2-((2-ethyl-5-(4-(2-(3-hydroxyazetidin-1-yl)-2-oxoethyl)-3-methylpiperazin-1-yl)-7-methylpyrazolo[1,5-a]pyrimidin-3-yl)(methyl)amino)-4-(4-fluorophenyl)thiazole-5-carbonitrile], the IC50 in data set [1] was found to be 207 nM.

`CCc1nn2ccc(N3CCN(CC(=O)N4CC(O)C4)CC3)nc2c1N(C)c1nc(-c2ccc(F)cc2)c(C#N)s1` [Compound S-0041, 2-((2-ethyl-5-(4-(2-(3-hydroxyazetidin-1-yl)-2-oxoethyl)piperazin-1-yl)pyrazolo[1,5-a]pyrimidin-3-yl)(methyl)amino)-4-(4-fluorophenyl)thiazole-5-carbonitrile]: in data set [2], the “CYP3A4 TDI % @ 10 μM” value is −4.00% and the “time-dependent inhibition” value is reported as “no time-dependent inhibition on CYP3A4”.

With `CCn1nc2cnc(N3CCN(CC(=O)N4CC(O)C4)CC3)cc2c1N(C)c1nc(-c2ccc(F)cc2)c(C#N)s1` [Compound S-0044, 2-((2-ethyl-5-(4-(2-(3-hydroxyazetidin-1-yl)-2-oxoethyl)piperazin-1-yl)-2H-pyrazolo[3,4-c]pyridin-3-yl)(methyl)amino)-4-(4-fluorophenyl) thiazole-5-carbonitrile], in data set [2], the “CYP3A4 TDI % @ 10 μM” value worked out at 15.3% and the “time-dependent inhibition” value was “no time-dependent inhibition on CYP3A4”.

(Values after patent publication US11591342B2, “Heterocyclic compound, application thereof and pharmaceutical composition comprising same” (SUZHOU SINOVENT PHARMACEUTICALS CO., LTD., priority 2018, dated 2023).)
